For orientation: IC50 means the point on the concentration scale where inhibition reaches its midpoint. Read a low IC50 as inhibition by little substance.

The structures appear in SMILES notation. Where only a bound is given, the exact number is not on record here.

We go through 99 compounds from ChEMBL document CHEMBL2094269, “WEHI/Eskitis Trypanosoma b. brucei screening data”.

The test relates to Trypanosoma brucei brucei. Put plainly: microbe, parasite or virus in culture. Type of test: functional, organism-based, STIB 795. As to conditions: Trypanosoma brucei, STIB 795.
Description: DNDI: Inhibition of Human African Trypanosomiasis (HAT), STIB 795, in vitro
`O=C(Nc1nc(-c2ccccn2)cc2ccccc12)c1cccc(Cl)c1` registered an IC50 of more than 10.4 µM.

In turn, `CN(C)S(=O)(=O)c1ccc2nc(NC(=O)c3cccs3)sc2c1` showed an IC50 of more than 10.4 µM.

The compound `COc1cccc(C(=O)Nc2ccc3nc(N4CCOCC4)cc(C)c3c2)c1` registered an IC50 of more than 10.4 µM.

For the compound `CCOC(=O)c1ccc(Nc2nc(-c3cccnc3)nc3ccccc23)cc1`, the IC50 is more than 10.4 µM.

`CC1CCN(S(=O)(=O)c2ccc3c4c2CC(=O)N4CC(C)S3)CC1` (centres undefined) showed an IC50 of more than 10.4 µM.

In turn, `CN(C)S(=O)(=O)c1ccc(C(=O)Nc2nnc(-c3cccs3)o2)cc1` showed an IC50 of more than 10.4 µM.

`CCCCCn1c(C(Cc2ccccc2)NC(=O)COC)nc2ccccc21` (centres undefined): the IC50 is more than 10.4 µM.

The compound `CC(NC(=O)c1cc(S(=O)(=O)N2CCCC2)cn1C)c1ccccc1` (centres undefined) came in with an IC50 of more than 10.4 µM.

The compound `COc1ccccc1CCNCc1ccc(OC)c(OCc2ccccc2)c1` showed an IC50 of more than 10.4 µM.

With `CCN1CCN(c2cc(C)c3cc(NC(=O)c4cccs4)ccc3n2)CC1`, the IC50 was more than 10.4 µM.

The compound `CCOc1cc(CNC2CCCC2)cc(Cl)c1OCc1ccccc1` yielded an IC50 of more than 10.4 µM.

Take `CCOc1cccc(CNCCO)c1OCc1ccc(Cl)cc1Cl`: the IC50 is more than 10.4 µM.

Regarding `CN1CCC(Oc2ccccc2Sc2ccc(C(F)(F)F)cc2)CC1`, the IC50 was more than 10.4 µM.

The compound `Fc1ccc(C(OCCN2CCCC2)c2ccc(Br)cc2)cc1` (centres undefined) gave an IC50 of more than 10.4 µM.

`CN1CCN(C2Cc3ccccc3Sc3cc(C(F)(F)F)ccc32)CC1` (centres undefined) gave an IC50 of more than 10.4 µM.

Consider `N=c1n(Cc2ccccc2Cl)c2ccccc2n1CC(O)c1ccco1` (centres undefined), for which the IC50 was more than 10.4 µM.

Compound `O=C(N/N=C\c1c(O)ccc2ccccc12)c1ccc(Cn2cccn2)o1` returned an IC50 of more than 10.4 µM.

The compound `OC(COCc1ccc(Cl)cc1)CN1CCC(Cc2ccccc2)CC1` (centres undefined) returned a concentration for half-maximal inhibition (IC50) of more than 10.4 µM.

Compound `O=C(N/N=C/c1ccc(-c2ccc(Br)cc2)o1)c1ccco1` registered an IC50 of more than 10.4 µM.

Compound `COc1ccc(-c2n/c(=N/c3ccccc3)sn2-c2ccccc2)cc1` yielded an IC50 of more than 10.4 µM.

Consider `Cc1ccc(Nc2nc3nonc3nc2NC(C)c2ccccc2)cc1C` (centres undefined), for which the IC50 was more than 10.4 µM.

Take `Cc1ccc(C2=NC(c3ccccc3F)NC(c3ccccc3O)C2)cc1` (centres undefined): the IC50 was more than 10.4 µM.

In turn, `CC1(C)CC(NC(=O)c2ccc(C#Cc3ccccc3)cc2)CC(C)(C)N1` displayed an IC50 of more than 10.4 µM.

In turn, `Fc1ccc(OCc2nn3c(-c4ccccc4Cl)nnc3s2)cc1` displayed an IC50 of more than 10.4 µM.

`COc1ccccc1NCN1C(=O)C(=O)c2cc(Br)ccc21` registered an IC50 of more than 10.4 µM.

Turning to `CCOC(=O)c1c(C)[nH]c2c1-c1cc(Br)ccc1C(=O)C2=O`, the IC50 was more than 10.4 µM.

In turn, `Cc1occc1C(=O)N/N=C/c1ccc(-c2ccc(Cl)cc2Cl)o1` registered an IC50 of more than 10.4 µM.

Compound `Cc1cnn(-c2cc(N/N=C/c3cc(Cl)cc(Cl)c3O)ncn2)c1` came in with an IC50 of more than 10.4 µM.

On to `C/C(=N\NC(=O)c1ccc(C)c(Br)c1)c1ccc(O)cc1O`, for which the IC50 is more than 10.4 µM.

`C=C(CC(CN1CCOCC1)C(=O)c1ccccc1)C(=O)c1ccccc1` (centres undefined) yielded an IC50 of more than 10.4 µM.

The compound `OC(CNCc1ccccc1)COc1cc2ccsc2c2ccccc12` (centres undefined) came in with an IC50 of more than 10.4 µM.

Consider `CCN(CC(O)COCCC12CC3CC(CC(C3)C1)C2)C1CCCCC1` (centres undefined), for which the IC50 is more than 10.4 µM.

`CC(C)(C)N(NC(=O)Nc1ccc(Cl)cc1)C(=O)c1ccccc1F` returned an IC50 of more than 10.4 µM.

`CN1CCC(C2Oc3ccc(F)cc3Sc3ccc(Cl)cc32)CC1` (centres undefined) returned an IC50 of more than 10.4 µM.

In turn, `C=CCn1c(=O)c(=O)n(CCC(=O)NCc2cccnc2)c2ccccc21` showed an IC50 of more than 10.4 µM.

Compound `COc1ccc(C(=O)CC(SCCO)c2ccc(F)cc2)cc1OC` (centres undefined) had an IC50 of more than 10.4 µM.

Take `Cc1cc(C(=O)CN2CCCCC2)c(C)n1-c1ccc(Cl)c(Cl)c1`: the IC50 was more than 10.4 µM.

Regarding `O=C(N/N=C/c1cc(Cl)ccc1O)c1cc(C2CC2)nc2ccccc12`, the IC50 was more than 10.4 µM.

The compound `COC(C(=O)NCc1ccc(Cl)cc1)(c1ccccc1)c1ccccc1` yielded an IC50 of more than 10.4 µM.

`CCn1c2ccccc2c2cc(NC(=O)C(=O)NCCCN(C)C)ccc21` came in with an IC50 of more than 10.4 µM.

Regarding `CCCC(=O)NC(c1ccc(SC)cc1)c1ccc2cccnc2c1O` (centres undefined), the IC50 is more than 10.4 µM.

For `CC(C)(C)c1cc(C(c2ccncc2)N2CCCC2)cc(C(C)(C)C)c1O` (centres undefined), the half-maximal inhibitory concentration (IC50) is more than 10.4 µM.

Compound `CC1CN(C(=O)c2ccc(COc3ccc(C(C)C)cc3)cc2)CC(C)O1` (centres undefined) displayed an IC50 of more than 10.4 µM.

`O=C(Nc1ccc(Cl)c(-c2nc3ncccc3o2)c1)c1cccc(F)c1` came in with an IC50 of more than 10.4 µM.

Regarding `COC(=O)C1=C(C)N(c2ccccc2)/C(=C/c2cccc3ccccc23)C1=O`, the IC50 was more than 10.4 µM.

As for `CCN(CC)C(=O)c1ccc(Nc2ccnc3cc4ccccc4cc23)cc1`, the IC50 was more than 10.4 µM.

Regarding `O=C(N/N=C/c1cc(Cl)cc(Br)c1O)c1ccccc1O`, the IC50 is more than 10.4 µM.

In turn, `Cn1c(NC(=O)c2ccccc2NC(=O)c2ccccc2)nc2ccccc21` came in with an IC50 of more than 10.4 µM.

In turn, `CN(C)c1ccc(C2(c3ccc(N(C)C)cc3)C=Cc3ccccc3O2)cc1` displayed an IC50 of more than 10.4 µM.

`CCC(=O)N1CCN(c2oc(/C=C/c3ccc(Cl)cc3)nc2C#N)CC1` showed an IC50 of more than 10.4 µM.

In the case of `CNC(=O)c1c[nH]c2ccc(S(=O)(=O)Nc3ccccc3C)cc2c1=O`, the IC50 was more than 10.4 µM.

Compound `Cn1c(=O)sc2cc(S(=O)(=O)Nc3cccc4cccnc34)ccc21` displayed an IC50 of more than 10.4 µM.

The compound `COc1ccc(C(CC(=O)c2ccco2)SCc2ccco2)cc1OC` (centres undefined) had an IC50 of more than 10.4 µM.

In the case of `Cc1ccc(C(CNC(=O)COc2ccc(Cl)cc2)N2CCCC2)cc1` (centres undefined), the IC50 was more than 10.4 µM.

Turning to `O=C(Nc1nc(-c2ccncc2)cs1)c1ccc(Oc2ccccc2)cc1`, the half-inhibitory concentration (IC50) was more than 10.4 µM.

Turning to `CSc1ccc(C(Nc2ccccn2)c2ccc3cccnc3c2O)cc1` (centres undefined), the IC50 was more than 10.4 µM.

With `CC1CC(OCC(O)CN2CCC(Cc3ccccc3)CC2)CC(C)(C)C1` (centres undefined), the IC50 is more than 10.4 µM.

For `O=C(/C=C/c1ccccc1)Nc1c(-c2ccccc2)nc2ccc(Cl)cn12`, the IC50 was more than 10.4 µM.

`OC(c1ccc(Cl)s1)(c1ccc(Cl)s1)C1CN2CCC1CC2` (centres undefined) showed an IC50 of more than 10.4 µM.

`Cc1ccc(-c2csc3ncnc(N/N=C/c4cc(C)ccc4O)c23)cc1` yielded an IC50 of more than 10.4 µM.

`C/C(=C\c1nsc(Nc2ccc(F)c(Cl)c2)n1)Nc1ccc(C)cc1`: the IC50 was more than 10.4 µM.

Compound `O=c1oc2c(cc(NS(=O)(=O)c3ccc(F)cc3)c3ccccc32)s1` yielded a 50% inhibitory concentration (IC50) of more than 10.4 µM.

For the compound `OC(C#CCN1CCOCC1)(c1ccc(Cl)cc1)c1cccc(Cl)c1` (centres undefined), the IC50 was more than 10.4 µM.

In the case of `OCCNCc1c(OCc2ccc(Cl)cc2Cl)ccc2ccccc12`, the IC50 was more than 10.4 µM.

In the case of `COC(=O)c1cc(-c2ccccc2)nc2c1C(=O)C(=O)C=C2N1CCCCC1`, the IC50 is more than 10.4 µM.

`CC(C)CNC(=O)Nc1cccc(-c2noc(C3(c4ccccc4)CC3)n2)c1` came in with an IC50 of more than 10.4 µM.

In the case of `CN(C)c1ccc(C(Nc2nccs2)c2ccc3cccnc3c2O)cc1` (centres undefined), the IC50 is more than 10.4 µM.

Take `CCN1c2ccccc2NC2=C(C(=O)CC(C)(C)C2)C1c1ccc(OC)cc1` (centres undefined): the IC50 is more than 10.4 µM.

`OC(CNCCc1ccccc1)CN1c2ccccc2Sc2ccccc21` (centres undefined) yielded an IC50 of more than 10.4 µM.

The compound `O=C(N/N=C\c1ccc(-c2cccc(Cl)c2Cl)o1)c1ccc(F)cc1` yielded an IC50 of more than 10.4 µM.

On to `N#Cc1cc(C#N)c(SCC(=O)Nc2cccc(C(F)(F)F)c2)nc1N`, for which the IC50 was more than 10.4 µM.

Consider `C=CCN1C(=O)c2[nH]nc(-c3c(C)cc(C)cc3O)c2C1c1ccc(F)cc1` (centres undefined), for which the IC50 is more than 10.4 µM.

The compound `Cc1ccc(Nc2cc(C)nc(N3CCN(C(=O)c4ccco4)CC3)n2)cc1` showed an IC50 of more than 10.4 µM.

With `COc1cccc(/C=C2/CN(C(C)C)C/C(=C\c3cccc(OC)c3)C2=O)c1`, the IC50 was more than 10.4 µM.

As to `CCOc1cccc(/C=N/NC(=O)c2cc(-c3ccc(CC)cc3)n[nH]2)c1O`, the IC50 is more than 10.4 µM.

Compound `OCCN1CCN(Cc2ccccc2Sc2ccc3ccccc3c2)CC1` had an IC50 of more than 10.4 µM.

In the case of `CC1CCN(Cc2cc(CSc3ccccc3)c3cccnc3c2O)CC1`, the IC50 is more than 10.4 µM.

For the compound `O=C(Nc1ccccc1C(=O)N/N=C/c1ccccn1)c1ccc(Cl)cc1`, the IC50 is more than 10.4 µM.

With `Cc1c(-c2cc(Cl)cc(-c3ccc(F)cc3)c2)ccc2nc(N)nc(N)c12`, the IC50 is more than 10.4 µM.

Turning to `COc1ccc(C(=O)O/N=C(\N)c2ccc(Br)cc2)c(OC)c1`, the IC50 is more than 10.4 µM.

Consider `Clc1ccc(Nc2nc3nonc3nc2NC2CCCCC2)cc1Cl`, for which the IC50 was more than 10.4 µM.

With `Cc1cc(C)c(C(=O)CC(SCC(=O)OC(C)C)C(F)(F)F)c(=O)[nH]1` (centres undefined), the IC50 was more than 10.4 µM.

In the case of `CCC(=O)Nc1nc2ccc(NS(=O)(=O)c3ccccc3F)cc2s1`, the half-maximal inhibitory concentration (IC50) was more than 10.4 µM.

For `CCCCOC(=O)c1ccc(NC(=O)c2ccc(C3CCCCC3)cc2)cc1`, the IC50 was more than 10.4 µM.

Take `Cc1ccccc1-c1cc(N2CCN(C(=O)NC3CCCCC3)CC2)ncn1`: the IC50 was more than 10.4 µM.

Compound `CN(C)c1ccc(/C=N/Nc2cc(N3CCCC3)nc(N3CCCC3)n2)cc1` showed an IC50 of more than 10.4 µM.

Regarding `O=C(O)c1ccc(NC(CC(=O)c2ccc(Cl)cc2)c2ccccc2)cc1` (centres undefined), the IC50 is more than 10.4 µM.

With `O=C(CC(SCc1ccco1)c1ccc(C(F)(F)F)cc1)c1ccco1` (centres undefined), the IC50 was more than 10.4 µM.

On to `COC(=O)c1ccc2c(c1)C(C)(C)C(/C=C/c1cccc(OC)c1OC)=[N+]2C`, for which the IC50 is more than 10.4 µM.

`COc1ccc(S(=O)(=O)C(CC(=O)c2ccccc2)c2ccccc2)cc1` (centres undefined): the IC50 is more than 10.4 µM.

For the compound `O=C1N=C(Nc2cccc(Cl)c2Cl)S/C1=C\c1ccc(O)c(O)c1`, the IC50 is more than 10.4 µM.

`C/C(=N/NC(=O)c1cc(-c2ccccc2)nc2ccccc12)c1ccccc1O`: the IC50 was more than 10.4 µM.

On to `CCOC(=O)c1c(-c2cccs2)csc1NC(=O)C#Cc1ccccc1`, for which the IC50 was more than 10.4 µM.

For `Cc1cccc(C(=O)N2CCN(c3cc(N4CCOCC4)nc(C)n3)CC2)c1`, the IC50 is more than 10.4 µM.

Compound `CN(C)c1ccc(C(=O)NN=C2C=C(C(C)(C)C)C(=O)C(C(C)(C)C)=C2)cc1` came in with an IC50 of more than 10.4 µM.

The compound `O=C(Nc1nc(NC(=O)c2ccco2)n(-c2ccccc2)n1)c1ccccc1` displayed an IC50 of more than 10.4 µM.

`CCC(CO)NCC(O)Cn1c2ccc(Cl)cc2c2cc(Cl)ccc21` (centres undefined) displayed an IC50 of more than 10.4 µM.

`CC(C)C(=O)NC(c1cccs1)c1cc(Cl)c2cccnc2c1O` (centres undefined) displayed an IC50 of more than 10.4 µM.

In the case of `Cc1ccc(Nc2nc3c(N)nnc(N)c3nc2Nc2ccc(C)cc2)cc1`, the IC50 was more than 10.4 µM.
